Our source for the pest or weed control and melting point values is patent US8722578B2, “Spiroheterocyclic pyrrolidinedione herbicidal compositions” (Syngenta Participations AG, priority 2008, dated 2014).

In data set [1] the test system is Setaria faberi (SETFA). The data set is described as follows: Example B pre-emergence herbicidal activity, glasshouse pot test. The conditions noted are these: 312 h, first table (headed Post-Emergence, taken as pre-emergence), evaluated after 13 days, read-out: SETFA activity (100=total damage to plant; 0=no damage to plant); for pest or weed control at 250 g/ha: rate 250 g/ha; for pest or weed control at 1000 g/ha: rate 1000 g/ha. The format is in vivo. How it is done:
(§1) Seeds of a variety of test species are sown in standard soil in pots. After cultivation for one day (pre-emergence) or after 8 days cultivation (post-emergence) under controlled conditions in a glasshouse (at 24/16° C., day/night; 14 hours light; 65% humidity), the plants are sprayed with an aqueous spray solution derived from the formulation of the technical active ingredient in acetone/water (50:50) solution containing 0.5% Tween 20 (polyoxyethelyene sorbitan monolaurate, CAS RN 9005-64-5). The test plants are then grown in a glasshouse under controlled conditions in a glasshouse (at 24/16° C., day/night; 14 hours light; 65% humidity) and watered twice daily. After 13 days for pre and post-emergence, the test is evaluated (100=total damage to plant; 0=no damage to plant). Test Plants: Setaria faberi (SETFA), Alopecurus myosuroides (ALOMY), Echinochloa crus-galli (ECHCG), Avena fatua (AVEFA)

Data set [2] deals with Avena fatua (AVEFA). The data set is described as above. The format is in vivo. The settings on record: 312 h, first table (headed Post-Emergence, taken as pre-emergence), evaluated after 13 days, read-out: AVEFA activity (100=total damage to plant; 0=no damage to plant); for pest or weed control at 250 g/ha: rate 250 g/ha; for pest or weed control at 1000 g/ha: rate 1000 g/ha. How it is done: as §1

Data set [3] relates to Alopecurus myosuroides (ALOMY). The description is as above. The data set is classed as in vivo. The conditions noted are these: 312 h, first table (headed Post-Emergence, taken as pre-emergence), evaluated after 13 days, read-out: ALOMY activity (100=total damage to plant; 0=no damage to plant); for pest or weed control at 250 g/ha: rate 250 g/ha; for pest or weed control at 1000 g/ha: rate 1000 g/ha. How it is done:
as §1

The test system of data set [4] is Echinochloa crus-galli (ECHCG). The data set is described as above. The format is in vivo. The settings on record: 312 h, first table (headed Post-Emergence, taken as pre-emergence), evaluated after 13 days, read-out: ECHCG activity (100=total damage to plant; 0=no damage to plant); for pest or weed control at 250 g/ha: rate 250 g/ha; for pest or weed control at 1000 g/ha: rate 1000 g/ha. The procedure:
as §1

In data set [5] the test system is Setaria faberi (SETFA). The data set is described as follows: Example B post-emergence herbicidal activity, glasshouse pot test. The data set is classed as in vivo. The settings on record: 312 h, evaluated after 13 days, read-out: SETFA post-emergence activity (100=total damage to plant; 0=no damage to plant); for pest or weed control at 250 g/ha: rate 250 g/ha; for pest or weed control at 1000 g/ha: rate 1000 g/ha. The procedure: as §1

Data set [6] deals with Avena fatua (AVEFA). The data set is described as above. The conditions noted are these: 312 h, evaluated after 13 days, read-out: AVEFA post-emergence activity (100=total damage to plant; 0=no damage to plant); for pest or weed control at 250 g/ha: rate 250 g/ha; for pest or weed control at 1000 g/ha: rate 1000 g/ha. The format is in vivo. How it is done: as §1
Data set [7] concerns Alopecurus myosuroides (ALOMY). The data set is described as above. The data set is classed as in vivo. The settings on record: 312 h, evaluated after 13 days, read-out: ALOMY post-emergence activity (100=total damage to plant; 0=no damage to plant); for pest or weed control at 250 g/ha: rate 250 g/ha; for pest or weed control at 1000 g/ha: rate 1000 g/ha. How it is done: as §1

Data set [8] relates to Echinochloa crus-galli (ECHCG). The description is as above. The data set is classed as in vivo. The conditions noted are these: 312 h, evaluated after 13 days, read-out: ECHCG post-emergence activity (100=total damage to plant; 0=no damage to plant); for pest or weed control at 250 g/ha: rate 250 g/ha; for pest or weed control at 1000 g/ha: rate 1000 g/ha. The procedure:
as §1

As to `CON1CCC2(CC1)NC(=O)C(c1ccc(Br)cc1C)=C2OC(=O)C(C)(C)C` [Compound P69], the melting point (commonly the temperature of the solid-liquid transition) lay within 239 to 240 °C. In data set [1], the pest or weed control at 250 g/ha was 100%. Also, the pest or weed control at 250 g/ha in data set [2] is 30%. Also, the pest or weed control at 250 g/ha in data set [3] came to 40%. Moreover, the pest or weed control at 250 g/ha in [4] worked out at 90%. Moreover, the pest or weed control at 250 g/ha in [5] was determined as 90%. In addition, the pest or weed control at 250 g/ha in [6] amounted to 60%. The pest or weed control at 250 g/ha in data set [7] turned out to be 90%. The pest or weed control at 250 g/ha in data set [8] is 90%.

`CON1CCC2(CC1)NC(=O)C(c1ccc(Cl)cc1Cl)=C2OC(=O)N(C)CCC#N` [Compound P39]: the melting point was in the range of 171 to 172 °C. In addition, the pest or weed control at 1000 g/ha in data set [1] was 60%. Further, the pest or weed control at 1000 g/ha in [2] stood at 0%. Also, in data set [3], the pest or weed control at 1000 g/ha turned out to be 0%. Further, the pest or weed control at 1000 g/ha in data set [4] turned out to be 30%. In addition, the pest or weed control at 1000 g/ha in data set [5] came out at 50%. Also, in data set [6], the pest or weed control at 1000 g/ha is 0%. Moreover, the pest or weed control at 1000 g/ha in data set [7] is 10%. Further, in data set [8], the pest or weed control at 1000 g/ha was 40%.

As to `CCOC(=O)OC1=C(c2ccc(Br)cc2Cl)C(=O)NC12CCN(OC)CC2` [Compound P66], the melting point fell in the range of 199 to 201 °C. Besides, in data set [1], the pest or weed control at 250 g/ha was 10%. Moreover, in [2], the pest or weed control at 250 g/ha worked out at 10%. Besides, the pest or weed control at 250 g/ha in [3] was 30%. Also, the pest or weed control at 250 g/ha in data set [4] was determined as 0%. The pest or weed control at 250 g/ha in [5] is 90%. The pest or weed control at 250 g/ha in data set [6] turned out to be 70%. Besides, the pest or weed control at 250 g/ha in [7] is 90%. Moreover, in data set [8], the pest or weed control at 250 g/ha turned out to be 100%.

On to `CON1CCC2(CC1)NC(=O)C(c1c(Cl)cccc1Cl)C2=O` (stereo not drawn) [Compound T3], for which the melting point is 257 to 260 °C. In addition, the pest or weed control at 1000 g/ha in [1] was 80%. Also, the pest or weed control at 1000 g/ha in data set [2] was found to be 0%. In [3], the pest or weed control at 1000 g/ha was 40%. The pest or weed control at 1000 g/ha in data set [4] was found to be 0%. Besides, the pest or weed control at 1000 g/ha in data set [5] stood at 70%. Moreover, the pest or weed control at 1000 g/ha in data set [6] is 0%. The pest or weed control at 1000 g/ha in data set [7] was 60%. For the same compound, in data set [8], the pest or weed control at 1000 g/ha is 0%.

The compound `CCOC(=O)OC1=C(c2cc(C3CC3)c(C)cc2C)C(=O)NC12CCN(OC)CC2` [Compound P55] had a melting point of 174 to 176 °C. In addition, the pest or weed control at 250 g/ha in data set [1] turned out to be 60%. Besides, the pest or weed control at 250 g/ha in data set [2] was 0%. In data set [3], the pest or weed control at 250 g/ha amounted to 10%. Besides, the pest or weed control at 250 g/ha in data set [4] came out at 40%. Also, in [5], the pest or weed control at 250 g/ha turned out to be 80%. Besides, the pest or weed control at 250 g/ha in data set [6] was 60%. For the same compound, in data set [7], the pest or weed control at 250 g/ha stood at 60%. In addition, in data set [8], the pest or weed control at 250 g/ha was determined as 70%.

For the compound `CON1CCC2(CC1)NC(=O)C(c1cc(C)ccc1C)=C2OC(=O)C(C)C` [Compound P34], the melting point lay within 201 to 203 °C. The pest or weed control at 1000 g/ha in data set [1] was 20%. Besides, the pest or weed control at 1000 g/ha in [2] came to 40%. Moreover, the pest or weed control at 1000 g/ha in [3] amounted to 30%. For the same compound, in [4], the pest or weed control at 1000 g/ha came to 20%. Further, the pest or weed control at 1000 g/ha in [5] came out at 60%. Also, the pest or weed control at 1000 g/ha in data set [6] amounted to 0%. In addition, the pest or weed control at 1000 g/ha in data set [7] amounted to 10%. Moreover, in data set [8], the pest or weed control at 1000 g/ha came out at 40%.

With `C=CCOC(=O)OC1=C(c2c(Cl)cccc2Cl)C(=O)NC12CCN(OC)CC2` [Compound P44], the melting point lay in the range of 203 to 205 °C. Also, the pest or weed control at 1000 g/ha in data set [1] is 30%. In addition, the pest or weed control at 1000 g/ha in [2] amounted to 10%. In [3], the pest or weed control at 1000 g/ha was 20%. The pest or weed control at 1000 g/ha in data set [4] came out at 30%. In [5], the pest or weed control at 1000 g/ha was determined as 50%. Further, the pest or weed control at 1000 g/ha in [6] came to 0%. The pest or weed control at 1000 g/ha in data set [7] was determined as 50%. Also, in data set [8], the pest or weed control at 1000 g/ha was 0%.

Compound `CON1CCC2(CC1)NC(=O)C(c1ccc(Cl)cc1Cl)C2=O` (stereo not drawn) [Compound T2] yielded a melting point of 221 to 223 °C. The pest or weed control at 1000 g/ha in data set [1] turned out to be 30%. Also, the pest or weed control at 1000 g/ha in data set [2] amounted to 40%. The pest or weed control at 1000 g/ha in data set [3] stood at 60%. The pest or weed control at 1000 g/ha in data set [4] amounted to 0%. In addition, the pest or weed control at 1000 g/ha in data set [5] came to 100%. Also, in data set [6], the pest or weed control at 1000 g/ha amounted to 90%. Besides, in data set [7], the pest or weed control at 1000 g/ha is 100%. In addition, the pest or weed control at 1000 g/ha in data set [8] was determined as 100%.

Compound `CCOC(=O)OC1=C(c2c(C)cc(C)cc2C)C(=O)NC12CCN(OCC)CC2` [Compound P22] came in with a melting point of 174 to 175 °C. Moreover, in data set [1], the pest or weed control at 1000 g/ha was 90%. For the same compound, in data set [2], the pest or weed control at 1000 g/ha worked out at 90%. Further, in data set [3], the pest or weed control at 1000 g/ha was determined as 90%. In addition, in [4], the pest or weed control at 1000 g/ha was found to be 100%. Besides, the pest or weed control at 1000 g/ha in data set [5] was determined as 70%. Also, the pest or weed control at 1000 g/ha in data set [6] was 60%. Moreover, in data set [7], the pest or weed control at 1000 g/ha is 90%. The pest or weed control at 1000 g/ha in data set [8] was determined as 100%.
